Results reported in patent US6372776B1, “Crystalline(−)-3R,4R-trans-7-methoxy-2,2-dimethyl-3-phenyl-4-{4-[2-(pyrrolidin-1-yl)ethoxy]phenyl}chromane, hydrogen maleate” (Novo Nordisk A/S, priority 1997, dated 2002).

Tests used:
hygroscopicity = format: physicochemical
[1] = stability characteristics
solubility in water = format: physicochemical

Molecule	bioavailability (bioavailability)	hygroscopicity (hygroscopicity)	stability characteristics [1]	solubility in water (solubility in water)
(−)-3R,4R-trans-7-methoxy-2,2-dimethyl-3-phenyl-4-{4-[2-(pyrrolidin-1-yl)ethoxy]phenyl}chromane, hydrogen maleate [hydrogen maleate salt]	good	non-hygroscopic	good	–
COc1ccc2c(c1)OC(C)(C)C(c1ccccc1)[C@@H]2c1ccc(OCCN2CCCC2)cc1 (single isomer, unassigned; (-)) [free base, (−)-3R,4R-trans-7-methoxy-2,2-dimethyl-3-phenyl-4-{4-[2-(pyrrolidin-1-yl)ethoxy]phenyl}chromane]	–	–	–	very poor
